This note sets out measurements from paper PMC4189421, “Induction of Oligodendrocyte Differentiation and In Vitro Myelination by Inhibition of Rho-Associated Kinase” (ASN NEURO, 2014).

SMILES strings stand for the structures.

Experiment [1] has as its system mouse neurosphere-derived oligodendrocyte precursor cells (Nph-OPCs). The experiment is described as follows: Morphology-based OPC differentiation assay (branches, outgrowth; high-content imaging). It counts as cell-based. To be noted: Mus musculus, Oligodendrocyte precursor cell, 72 h, read-out: IC50, generation of branches in OPC differentiation assay. As to the method: Neurospheres (Nph) were prepared from embryos at 14.5 days of gestation obtained from timed pregnant females of C57/Bl6 mice, as previously described ([Kornblum, Yanni, Easterday, & Seroogy, 2000]; [Pedraza, Monk, Lei, Hao, & Macklin, 2008]). In brief, after separation of meninges and cerebellum, cerebrum tissue was mechanically triturated with a 1-ml micropipette until total tissue dissociation was achieved, filtered through a 70 -µm cell strainer (Fisher Scientific, Pittsburgh, PA), and plated in 25-cm^2 plastic culture flasks (2 brains/flask). Nph proliferation media (NPM) consisted of Dulbecco’s Modified Eagle Medium (DMEM)/F12, B27 neuronal supplement (Gibco, Baltimore, MD) and 10 ng/ml […] (EGF; Sigma, St. Louis, MO). After 48 to 72 hr, floating Nphs were passaged at a 1 : 1 ratio into 75-cm^2 culture flasks. After a further 48 to 72 hr, they were passaged into 150-cm^2 flasks. Subsequent passages were performed every 3 to 4 days at a ratio of 1 : 2 or 1 : 3 in the same media, and Nph were used to generate OPCs for no more than 12 passages.
OPCs were generated by chemical disaggregation of Nph with a mouse neural progenitor dissociation kit following the manufacturer instructions (NeuroCult, StemCell Technologies, AB, Canada). The single-cell suspension was then filtered through a 40 -µm cell strainer and plated on poly-D-lysine (PDL)-coated plates. […]
To determine the effects of ROCK inhibition on OPCs, we developed a high-content image morphological analysis of OPC differentiation using mouse embryonic neural progenitor-derived OPCs (Nph-OPCs). […] Four images per well were analyzed using a neurite outgrowth module (Molecular Devices, Sunnyvale, CA). We quantified the number of branches and total outgrowth per cell (Figure 1). […] Additionally, nuclear staining by Hoechst allowed the accurate association of branches and processes to their corresponding cell bodies and permitted quantification of total cell numbers in each well.

Experiment [2] deals with mouse Nph-OPCs. The experiment is described as follows: Cell proliferation as number of Hoechst-labeled nuclei. Type of experiment: cell-based. To be noted: 1 µM; n = 3 in triplicate wells; DMSO: 522 ± 126. The source says:
To determine the effects of ROCK inhibition on OPCs, we developed a high-content image morphological analysis of OPC differentiation using mouse embryonic neural progenitor-derived OPCs (Nph-OPCs). Neural progenitors grow as nonadherent spheroids known as neurospheres (Nph; [Chojnacki & Weiss, 2008]; [Tropepe et al., 1999]), which are considered to be a mixed population of neural stem cells and progenitors of the CNS ([Rao, 1999]; [Zhou & Chiang, 1998]). These cells have been previously used in multiple published studies for the generation of high-yield, high-purity cultures of OPCs from rodents ([Calaora et al., 2001]; [[…] al., 1997]; [Pedraza et al., 2008]). After 24 hr of plating on PDL-coated tissue culture plastic, Nph-OPCs were treated as indicated with differentiation stimuli and further incubated for 72 hr. […] Four images per well were analyzed using a neurite outgrowth module (Molecular Devices, Sunnyvale, CA). We quantified the number of branches and total outgrowth per cell (Figure 1). […] Additionally, nuclear staining by Hoechst allowed the accurate association of branches and processes to their corresponding cell bodies and permitted quantification of total cell numbers in each well. […]

Turning to `C[C@@H](N)[C@H]1CC[C@H](C(=O)Nc2ccncc2)CC1.Cl.Cl` [Y0503, trans-4-[(1 R)-1-aminoethyl]-N-4-pyridinylcyclohexanecarboxamide dihydrochloride], in experiment [1], the IC50 stood at 2700 nM. In addition, the “Number of Hoechst-labeled nuclei” value in experiment [2] came out at 625 ± 88 cells/well.
